Source: the NIST ThermoML archive (doi:10.1021/je300835h)
Numbers after ± are expanded uncertainties. One block for each compound: values may come before it.

Conditions: Liquid, Ebulliometric method (Recirculating still)

- vapor or sublimation pressure (390.65 K): 101.3 ± 1 kPa
SMILES: CCCCO [butan-1-ol]

- vapor or sublimation pressure (337.75 K): 101.3 ± 1 kPa
SMILES: CO [methanol]

SMILES: C=COC(C)=O [vinyl acetate]
- vapor or sublimation pressure (345.75 K): 101.3 ± 1 kPa
